One series has as its system arrowhead. Nature of the series: Test Example 7, flooded paddy pot dripping, herbicidal activity. Note: ranges in brackets are in %. The series is classed as in vivo, Sagittaria pygmaea. The conditions noted are these: 3 weeks. As for the experimental part: (§1) The application of the tetrahydrophthalimides (I) as herbicides will be illustratively shown in the following Examples wherein the phytotoxicity to cultivated plants and the herbicidal activity on weeds were evaluated as follows: the aerial parts of the test plants were cut off and weighed (fresh weight); the percentage of the fresh weight of the treated plant to that of the untreated plant was calculated with the latter fresh weight taken as 100; and the crop damage and the herbicidal activity were evaluated by the standard given in the table below. The rating values of phytotoxicity, 0 and 1, and those of herbicidal effect, 5 and 4, are generally regarded as satisfactory to protect cultivated plants and control weeds, respectively. The rating values in the paddy field test alone were calculated from the dry weight of the test plants.
(§2) Wagner's pots (1/5000 are) were filled with paddy field soil and water was poured therein to make a flooded condition. Rice seedlings of the 3-leaf stage were transplanted and tubers of slender spikerush and arrowhead and the seeds of barnyardgrass, monochoria and broad-leaved weed were sowed therein and grown for 5 days. When germination occurs, a designed amount of the test compound formulated into an emulsifiable concentrate according to Preparation Example 2 was applied to the pots by dripping. The test plants were grown for a further 3 weeks, and herbicidal activity and phytotoxicity were examined. The herbicidal activity was evaluated in figures ranging from 0 to 5. The phytotoxicity to the crop plants was also indicated on the same standard as that of the herbicidal activity.

The next series deals with rice plant. Nature of the series: Test Example 7, flooded paddy pot dripping, phytotoxicity to rice plant. Note: ranges in brackets are in %. The series is classed as in vivo. The conditions noted are these: 3 weeks. As for the experimental part:
as §1, §2

In the next series the test system is broad-leaved weed. Nature of the series: Test Example 7, flooded paddy pot dripping, herbicidal activity. Note: ranges in brackets are in %. Particulars: 3 weeks. It is filed as in vivo. As for the experimental part:
as §1, §2

Another series has as its system monochoria. Described as above. It is filed as in vivo, Monochoria vaginalis. Particulars: 3 weeks. As for the experimental part:
as §1, §2

For series [1], the system named is barnyardgrass. The description is as above. The series is classed as in vivo, Echinochloa crus-galli. The conditions noted are these: 3 weeks. The method, then: as §1, §2
The next series deals with slender spikerush. Described as above. It is filed as in vivo, Eleocharis acicularis. The conditions noted are these: 3 weeks. As for the experimental part: as §1, §2
A further series has as its system wild oat. Description: Test Example 1, foliar treatment, herbicidal activity. The series is classed as in vivo, Avena fatua. The conditions noted are these: 3 weeks. The method, then: as §1
(§3) Plastic beakers (diameter, 10 cm; height, 10 cm) were filled with upland field soil, and the seeds of corn, barnyardgrass, wild oat, wild mustard and velvetleaf were separately sown in the beakers and grown for 2 weeks in the greenhouse. A designed amount of the test compound was sprayed to the foliage of the test plants by means of a small hand sprayer. After the spraying, the test plants were further grown for 3 weeks in the greenhouse, and herbicidal activity was examined. In this foliar treatment, the test compounds were formulated into an emulsifiable concentrate according to Preparation Example 2 and applied at a spray volume of 5 liters per are by dispersing it in water with the addition of a spreading agent.

The subject of series [2] is barnyardgrass. The series is described as above. It is filed as in vivo, Echinochloa crus-galli. The conditions noted are these: 3 weeks. As for the experimental part: as §1, §3
The subject of the next series is sicklepod. Description: Test Example 3, soil surface spraying, herbicidal activity. Note: ranges in brackets are in %. The series is classed as in vivo, Cassia obtusifolia. Particulars: 20 days. As for the experimental part:
as §1
(§4) Plastic trays (35 cm×25 cm×15 cm) were filled with upland field soil, and the seeds of tall morningglory, velvetleaf and sicklepod and the seeds of corn were sown therein. A designed amount of the test compounds formulated into a wettable powder according to Preparation Example 1 was dispersed in water and applied by spraying at a spray volume of 5 liters per are to the whole surface of the soil. After the spraying, the test plants were placed in a greenhouse and grown for 20 days, and herbicidal activity and phytotoxicity were examined.

Series [3] concerns corn. Nature of the series: Test Example 1, foliar treatment, phytotoxicity to corn. Note: ranges in brackets are in %. The conditions noted are these: 3 weeks. It is filed as in vivo. The method, then:
as §1, §3

The subject of another series is tall morningglory. Description: Test Example 3, soil surface spraying, herbicidal activity. Note: ranges in brackets are in %. It is filed as in vivo, Ipomoea purpurea. The conditions noted are these: 20 days. The method, then:
as §1, §4

In series [4] the test system is corn. Nature of the series: Test Example 3, soil surface spraying, phytotoxicity to corn. Note: ranges in brackets are in %. The conditions noted are these: 20 days. It is filed as in vivo. The method, then:
as §1, §4

For another series, the system named is wild mustard. Nature of the series: Test Example 1, foliar treatment, herbicidal activity. It is filed as in vivo, Brassica kaber. The conditions noted are these: 3 weeks. As for the experimental part:
as §1, §3

The subject of series [5] is velvetleaf. Described as above. It is filed as in vivo, Abutilon theophrasti. Particulars: 3 weeks. As for the experimental part:
as §1, §3

Series [6] has as its system velvetleaf. Nature of the series: Test Example 3, soil surface spraying, herbicidal activity. Note: ranges in brackets are in %. It is filed as in vivo, Abutilon theophrasti. Particulars: 20 days. As for the experimental part:
as §1, §4
Throughout, for Herbicidal activity, Barnyardgrass: ranges in brackets are in %.
Throughout, for Herbicidal activity, Monochoria: ranges in brackets are in %.
Throughout, for Herbicidal activity, Slender spikerush: ranges in brackets are in %.
Throughout, for Herbicidal activity, Velvetleaf: ranges in brackets are in %.
Throughout, for Herbicidal activity, Wild cat: ranges in brackets are in %.

Consider `CCCCCCCCOc1cc(N2C(=O)C3=C(CCCC3)C2=O)c(F)cc1Cl` [Compound No. 10], for which the “Herbicidal activity, Allowhead” value was 3 (50-69) in the series on arrowhead (1.25 g/are), 4 (70-89) in the series with arrowhead (2.5 g/are) and 4 (70-89) in the series on arrowhead (5 g/are). For the same compound, the “Phytotoxicity, Rice plant” value in the series on rice plant (1.25 g/are), with rice plant (2.5 g/are) and in the series on rice plant (5 g/are) was 0 (0-9) in each case. Moreover, the “Herbicidal activity, Broad-leaved weed” value in the series with broad-leaved weed (1.25 g/are), with broad-leaved weed (2.5 g/are) and in the series with broad-leaved weed (5 g/are) was 5 (90-100) each time. Moreover, the “Herbicidal activity, Monochoria” value with monochoria (1.25 g/are), in the series with monochoria (2.5 g/are) and in the series on monochoria (5 g/are) was 5 (90-100) each time. For the same compound, the “Herbicidal activity, Barnyardgrass” value in the series on barnyardgrass [1] (1.25 g/are) was 3 (50-69); in the series with barnyardgrass [1] (2.5 g/are), 4 (70-89); with barnyardgrass [1] (5 g/are) it was 5 (90-100). In addition, the “Herbicidal activity, Slender spikerush” value in the series on slender spikerush (1.25 g/are) is on record as 3 (50-69); with slender spikerush (2.5 g/are), 3 (50-69); with slender spikerush (5 g/are), 4 (70-89).

In the case of `CCC(C)Oc1cc(N2C(=O)C3=C(CCCC3)C2=O)c(F)cc1Cl` (stereo not drawn) [compound 4], the entries for the “Herbicidal activity, Wild cat” value in the series with wild oat (1.25 g/are) and in the series with wild oat (5 g/are) were 2 (21-40) and 5 (0), respectively. In addition, the “Herbicidal activity, Barnyardgrass” value with barnyardgrass [2] (1.25 g/are) was 1 (41-60); in the series on barnyardgrass [2] (5 g/are), 5 (0). Also, the “Herbicidal activity, Sicklepod” value in the series with sicklepod (5 g/are) and in the series on sicklepod (10 g/are) was 4 (1-10) throughout. In addition, the “Phytotoxicity, Corn” value with corn [3] (1.25 g/are) is 0 (100); in the series on corn [3] (5 g/are) it was 1 (90-99); in the series with corn [4] (5 g/are), 0 (100); with corn [4] (10 g/are) it was 0 (100). Moreover, the “Herbicidal activity, Tall morningglory” value in the series on tall morningglory (5 g/are) is reported as 4 (1-10); with tall morningglory (10 g/are), 5 (0). In addition, the “Herbicidal activity, Wild mustard” value with wild mustard (1.25 g/are) is recorded as 4 (1-10); with wild mustard (5 g/are) it was 5 (0). In addition, the “Herbicidal activity, Velvetleaf” value with velvetleaf [5] (1.25 g/are), in the series with velvetleaf [5] (5 g/are), in the series on velvetleaf [6] (5 g/are) and with velvetleaf [6] (10 g/are) was 5 (0) throughout.

In the case of `CC(C)COc1cc(N2C(=O)C3=C(CCCC3)C2=O)c(F)cc1Cl` [compound 5], the “Herbicidal activity, Wild cat” value is reported as 1 (41-60) in the series on wild oat (1.25 g/are) and 4 (1-10) in the series on wild oat (5 g/are). For the same compound, the figures for the “Herbicidal activity, Barnyardgrass” value in the series on barnyardgrass [2] (1.25 g/are) and with barnyardgrass [2] (5 g/are) were 2 (21-40) and 4 (1-10), respectively. The “Herbicidal activity, Sicklepod” value with sicklepod (5 g/are) and with sicklepod (10 g/are) was 4 (1-10) throughout. The “Phytotoxicity, Corn” value in the series with corn [3] (1.25 g/are), with corn [3] (5 g/are), with corn [4] (5 g/are) and in the series with corn [4] (10 g/are) was 0 (100) each time. Further, the “Herbicidal activity, Tall morningglory” value in the series on tall morningglory (5 g/are) was 4 (1-10); in the series on tall morningglory (10 g/are), 5 (0). The figures for the “Herbicidal activity, Wild mustard” value in the series with wild mustard (1.25 g/are) and with wild mustard (5 g/are) were 3 (11-20) and 5 (0), respectively. In addition, the “Herbicidal activity, Velvetleaf” value in the series with velvetleaf [5] (1.25 g/are), with velvetleaf [5] (5 g/are), in the series with velvetleaf [6] (5 g/are) and in the series with velvetleaf [6] (10 g/are) was 5 (0) in each case.

For the compound `CCCCCCOc1cc(N2C(=O)C3=C(CCCC3)C2=O)c(F)cc1Cl` [compound 8], the “Herbicidal activity, Allowhead” value in the series on arrowhead (1.25 g/are) was 4 (70-89); in the series with arrowhead (2.5 g/are), 5 (90-100); in the series on arrowhead (5 g/are), 5 (90-100). In addition, the “Phytotoxicity, Rice plant” value in the series with rice plant (1.25 g/are), with rice plant (2.5 g/are) and in the series with rice plant (5 g/are) was 0 (0-9) throughout. Moreover, the “Herbicidal activity, Broad-leaved weed” value in the series with broad-leaved weed (1.25 g/are), in the series on broad-leaved weed (2.5 g/are) and in the series on broad-leaved weed (5 g/are) was 5 (90-100) in each case. Moreover, the “Herbicidal activity, Monochoria” value in the series with monochoria (1.25 g/are), with monochoria (2.5 g/are) and in the series on monochoria (5 g/are) was 5 (90-100) each time. The “Herbicidal activity, Barnyardgrass” value with barnyardgrass [1] (1.25 g/are) is reported as 4 (70-89); with barnyardgrass [1] (2.5 g/are), 5 (90-100); in the series with barnyardgrass [1] (5 g/are), 5 (90-100). For the same compound, the “Herbicidal activity, Slender spikerush” value in the series with slender spikerush (1.25 g/are) is reported as 4 (70-89); with slender spikerush (2.5 g/are), 4 (70-89); in the series on slender spikerush (5 g/are), 5 (90-100).

As for `CCCCCCCOc1cc(N2C(=O)C3=C(CCCC3)C2=O)c(F)cc1Cl` [compound 9], the “Herbicidal activity, Allowhead” value was 3 (50-69) with arrowhead (1.25 g/are), 4 (70-89) with arrowhead (2.5 g/are) and 4 (70-89) in the series with arrowhead (5 g/are). Also, the “Phytotoxicity, Rice plant” value in the series with rice plant (1.25 g/are), in the series on rice plant (2.5 g/are) and in the series with rice plant (5 g/are) was 0 (0-9) in each case. Further, the “Herbicidal activity, Broad-leaved weed” value in the series on broad-leaved weed (1.25 g/are), in the series on broad-leaved weed (2.5 g/are) and with broad-leaved weed (5 g/are) was 5 (90-100) each time. For the same compound, the “Herbicidal activity, Monochoria” value with monochoria (1.25 g/are), in the series with monochoria (2.5 g/are) and in the series with monochoria (5 g/are) was 5 (90-100) in each case. For the same compound, the “Herbicidal activity, Barnyardgrass” value in the series with barnyardgrass [1] (1.25 g/are) is given as 4 (70-89); in the series with barnyardgrass [1] (2.5 g/are), 4 (70-89); with barnyardgrass [1] (5 g/are), 5 (90-100). In addition, the “Herbicidal activity, Slender spikerush” value in the series with slender spikerush (1.25 g/are) is recorded as 3 (50-69); with slender spikerush (2.5 g/are) it was 4 (70-89); with slender spikerush (5 g/are) it was 4 (70-89).

Turning to `CC(C)CCOc1cc(N2C(=O)C3=C(CCCC3)C2=O)c(F)cc1Cl` [compound 11], the “Herbicidal activity, Allowhead” value with arrowhead (1.25 g/are) is on record as 3 (50-69); in the series with arrowhead (2.5 g/are), 4 (70-89); in the series with arrowhead (5 g/are), 5 (90-100). For the same compound, the “Phytotoxicity, Rice plant” value in the series on rice plant (1.25 g/are), in the series on rice plant (2.5 g/are) and with rice plant (5 g/are) was 0 (0-9) in each case. For the same compound, the “Herbicidal activity, Broad-leaved weed” value with broad-leaved weed (1.25 g/are), in the series with broad-leaved weed (2.5 g/are) and in the series on broad-leaved weed (5 g/are) was 5 (90-100) throughout. The “Herbicidal activity, Monochoria” value in the series on monochoria (1.25 g/are), in the series on monochoria (2.5 g/are) and in the series on monochoria (5 g/are) was 5 (90-100) throughout. Moreover, the “Herbicidal activity, Barnyardgrass” value with barnyardgrass [1] (1.25 g/are) is reported as 4 (70-89); with barnyardgrass [1] (2.5 g/are), 5 (90-100); with barnyardgrass [1] (5 g/are) it was 5 (90-100). Further, the results for the “Herbicidal activity, Slender spikerush” value with slender spikerush (1.25 g/are), with slender spikerush (2.5 g/are) and in the series on slender spikerush (5 g/are) were 4 (70-89), 4 (70-89) and 5 (90-100), respectively.

These data come from US5030760A, “Tetrahydrophthalimides, and their production and use” (Sumitomo Chemical Company, Ltd., priority 1981, dated 1991).
